Results from PubChem BioAssay (NCI).
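48-hour exposure; five concentrations; linearly interpolated endpoints. The concentration for 50% growth inhibition is given as GI50. The concentration for full growth arrest is given as TGI.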

What was measured:
Assay in all cases: NCI tumour cell line growth inhibition, 48 h
UACC-62 melanoma = system: UACC-62 melanoma
HL-60(TB) leukemia = system: HL-60(TB) leukemia
NCI-H522 lung = system: NCI-H522 lung
DU-145 prostate = system: DU-145 prostate
HCT-116 colon = system: HCT-116 colon
SF-268 CNS = system: SF-268 CNS
COLO 205 colon = system: COLO 205 colon
TK-10 renal = system: TK-10 renal
K-562 leukemia = system: K-562 leukemia

Compound	TGI (UACC-62 melanoma)	TGI (HL-60(TB) leukemia)	TGI (NCI-H522 lung)	TGI (DU-145 prostate)	TGI (HCT-116 colon)	TGI (SF-268 CNS)	TGI (COLO 205 colon)	TGI (TK-10 renal)	TGI (K-562 leukemia)	GI50 (UACC-62 melanoma)	GI50 (HL-60(TB) leukemia)	GI50 (NCI-H522 lung)	GI50 (DU-145 prostate)	GI50 (K-562 leukemia)
COC(=O)[C@@]1(Cc2ccc(OC(C)=O)cc2)Cc2cc3ccccc3n2N1	> 100 µM	80.8 µM	> 100 µM	> 100 µM	> 100 µM	> 100 µM	92.7 µM	> 100 µM						
O=C(N/N=C/c1ccc(O)cc1)NNCCO	> 100 µM	> 100 µM	> 100 µM	> 100 µM	> 100 µM		> 100 µM	> 100 µM	> 100 µM					
CC(=O)OC1CC[C@@]2(C)C(=CC[C@@H]3[C@@H]2CC[C@]2(C)Nc4c(cnn4-c4ccc(F)cc4)C[C@@H]32)C1 (some centres undefined)	> 71.1 µM	> 26 µM	> 100 µM	> 100 µM	> 50.5 µM	> 100 µM	> 78.7 µM	> 100 µM	> 100 µM					
CCc1c[n+]2c(cc1C1=CN3c4ccccc4[C@]45CCN6C/C(=C/CO)[C@H](C[C@H]64)[C@@H]([C@@H]1O)[C@H]35)-c1[nH]c3ccccc3c1CC2	> 50 µM	> 50 µM	> 50 µM	> 50 µM	> 50 µM	> 50 µM	> 50 µM	> 50 µM	> 50 µM					
Cn1c(SCc2ccc([N+](=O)[O-])cc2)nnc1C12CC3CC(CC(C3)C1)C2	> 10 µM	> 10 µM	> 10 µM	> 10 µM	> 10 µM	> 10 µM	> 10 µM		> 10 µM					
O=C1/C(=C/Cc2ccco2)N=C(c2ccccc2)N1c1nc2ccc(Sc3ccccc3)cc2[nH]1	83.1 µM	45.4 µM		70.5 µM	40.7 µM	58.1 µM	36 µM	> 100 µM	> 100 µM					
CN1C(=O)c2c(c3c4ccccc4n(C)c3c3c2c2ccccc2n3C)C1=O	> 100 µM		> 100 µM	> 100 µM	> 100 µM		> 100 µM	> 100 µM	> 100 µM					
OC[C@H](O)[C@@H](OCc1ccccc1)[C@H](NCc1ccccc1)c1cccs1	> 100 µM	> 100 µM	> 100 µM	> 100 µM	> 100 µM	> 100 µM	> 100 µM	> 100 µM	> 100 µM					
CCOC(=O)C(NS(=O)(=O)c1ccccc1)(C(F)(F)F)P(=O)(OCC(C)C)OCC(C)C (centres undefined)	> 100 µM	> 100 µM	> 100 µM	> 100 µM	> 100 µM	> 100 µM	> 100 µM	> 100 µM	> 100 µM					
CCCN1CCN(c2ccc3nc(-c4ccc5nc(-c6ccc(OCC)cc6)[nH]c5c4)[nH]c3c2)CC1	26.7 µM	3.55 µM	3.46 µM	2.78 µM					1.82 µM	1.07 µM	1.08 µM	1.16 µM	1.33 µM	0.418 µM
COc1cc2ccnc3c2c(c1OC)N(C)C=C3	80.3 µM			> 100 µM	37.9 µM	> 100 µM	96.3 µM	> 100 µM	65.5 µM					
COc1ccc2nc3c(nc2c1)C(C)(C)C=C3c1ccc(Br)cc1		> 100 µM	> 100 µM	> 100 µM	> 100 µM	> 100 µM	> 100 µM	> 100 µM						
CCOC(=O)C1=C(C)NC(c2ccccc2)=C(C(=O)OCc2ccccc2)C1C#Cc1ccccc1 (centres undefined)	> 100 µM	> 100 µM		> 100 µM	> 100 µM	> 100 µM	> 100 µM	> 100 µM	> 100 µM					
Cc1ccc2c(=O)cc(-c3ccccc3)[nH]c2n1			2.94 µM	> 23.7 µM	59.4 µM	> 100 µM		> 9.36 µM	6.57 µM					
OC[C@@H](O)[C@H](O)[C@H](O)[C@@H](O)C1SCCCS1	> 100 µM			> 100 µM	> 100 µM	> 100 µM	> 100 µM	> 100 µM						
Nc1nc(Cl)cc(OCC2(CO)CCCCC2)n1		> 100 µM	> 100 µM	> 100 µM	> 100 µM	> 100 µM		> 100 µM						
CC(=O)O[C@H]1C(=O)[C@@]2(C)C(C(OC(=O)c3ccccc3)[C@]3(O)CC(OC(=O)C(O)C(NC(=O)c4cccc(Cl)c4)c4ccccc4)C(C)=C1C3(C)C)[C@]1(OC(C)=O)CO[C@@H]1C[C@@H]2O (some centres undefined)		0.419 µM	3.83 µM	5.58 µM	5.12 µM	> 10 µM	4.58 µM	> 10 µM	> 10 µM					
C#CCn1c(=O)c2cc(OC)c(OC)cc2n(CC#C)c1=O			> 10 µM	> 10 µM	> 10 µM	> 10 µM	> 10 µM	> 10 µM	> 10 µM					
CCOC(=O)/C(C(N)=O)=C(/O)c1cnccn1	> 100 µM	> 100 µM	> 100 µM	> 100 µM	> 100 µM	> 100 µM	> 100 µM		> 100 µM					
Nc1ccc(Oc2ccc(C34CC5CC(C3)CC(c3ccc(Oc6ccc(N)c(O)c6)cc3)(C5)C4)cc2)cc1O	6.59 µM		3.33 µM	3.3 µM		2.9 µM	2.85 µM	> 20.3 µM	> 100 µM					
CN(CCCNC(=O)c1[nH]nc2c1ccc1ccccc12)CCCNC(=O)c1[nH]nc2c1ccc1ccccc12	21.6 µM	10.4 µM	30.8 µM	31.8 µM	25.2 µM	28.1 µM	10.9 µM	31.8 µM						
O=[N+]([O-])c1cc(-c2ccc([As](=O)(O)O)cc2)ccc1[As](=O)(O)O	> 100 µM	> 100 µM	> 100 µM	> 100 µM	> 100 µM	> 100 µM		> 100 µM	> 100 µM					
Cc1[nH]c(-c2ccccc2)c(O)c1C(=O)OC1CC(C)CCC1C(C)C (centres undefined)	30.9 µM	42.6 µM	26.6 µM	29.7 µM	28.1 µM	29.4 µM	27.9 µM		> 100 µM					
O=C(O)Cn1cnc2c(=O)[nH]c(Nc3ccccc3)nc21	> 100 µM		> 100 µM	> 100 µM	> 100 µM	> 100 µM	> 100 µM	> 100 µM						
O=C(NC1CCCCC1)N1CCNC1=S		> 100 µM	> 100 µM	> 100 µM	> 100 µM	> 100 µM	> 100 µM	> 100 µM	> 100 µM					
